Source: US20040171627A1, “Treatment of renal fibrosis” (Hadasit, priority 2001, published 2004)
“And” between values parts separate entries of the source, which are not always exact repeats. Equal entries are not always repeated. “Also recorded” adds a separate entry of the source.

Experiments:
[1] = test system: RMR rats (5/6 nephrectomy); experiment: Protein concentration in urine (proteinuria) of RMR rats; assay type: in vivo, Male Wistar rats; conditions: halofuginone 0.2 mg/kg/day oral, statistically significant from week 5 post-nephrectomy on (FIG. 2)
Experimental: Male Wistar rats (weighing 300±30 g at the start of the experiment) were used in this study. They were allowed to acclimatize to their environment for one week. Rats were assigned to undergo renal mass reduction (RMR) by 5/6 nephrectomy or Sham operation, under anesthesia with intraperitoneal injection of pentobarbital (35 mg/kg body weight). RMR was performed by ligature of 2 of 3 major branches of the left renal artery and right nephrectomy in the same session. Sham rats have undergone exposition of the kidneys and removal of the peri-renal fat. After 24 hours recovery the rats were assigned to one of the following groups: 1) Group I: RMR rats, oral gavage with halofuginone 0.2 mg/kg/day started 24 hours post surgery. 2) Group II: RMR rats, oral gavage with normal saline daily, started 24 hours post surgery. 3) Group III: age matched, sham operated rats served as the controls. […] Every week, systolic blood pressure was measured by tail cuff manometry and urine samples were collected individually in metabolic cages for determination of total protein and creatinine excretion. Protein concentration in urine was determined by a colorimetric method using pyrogallol-red molybdate complex (cobas integra 700, Roche). Body weight was also measured. […] Serum creatinine was measured with a Hitachi model 747 autoanalyzer, using the kinetic Jaffe method.

[2] = test system: RMR rats (5/6 nephrectomy), renal fibrosis; experiment: Light microscopy of kidneys after 5/6 nephrectomy (RMR) in rats, semi-quantitative histological evaluation; assay type: in vivo, Male Wistar rats
Experimental: A solution of halofuginone was prepared by dissolution of powder of halofuginone hydrobromide in aqueous media containing suitable buffer. Male Wistar rats (weighing 300±30 g at the start of the experiment) were used in this study after being allowed to acclimatize to their environment for one week. Rats were assigned to undergo renal mass reduction (RMR) by 5/6 nephrectomy or sham operation, under anesthesia with intraperitoneal injection of pentobarbital (35 mg/kg body weight). RMR was performed by ligature of 2 of 3 major branches of the left renal artery and right nephrectomy in the same session. Sham rats undergo exposure of the kidneys and removal of the peri-renal fat, without undergoing RMR. After 24 hours recovery of the rats were assigned to one of the following groups: 1) Group I: RMR rats, oral gavage with halofuginone 0.2 mg/kg/day started 24 hours post surgery. 2) Group II: RMR rats, oral gavage with normal saline daily, started 24 hours post surgery. 3) Group III: age matched, sham operated rats served as the controls. All animals were allowed free access to a standard diet and water ad libitum. At sacrifice (10 weeks after RMR), kidneys were removed and processed for in situ hybridization, immunohistochemistry and histological evaluation. Light microscopy studies: specimens were fixed in 10% buffered formaldehyde and embedded in paraffin. Histological sections of 4-5μ thickness were stained with hematoxylin-eosin (HES), periodic acid Schiff (PAS) and Masson trichrome (light green). A semi-quantitative score was used to evaluate the degree of glomerulosclerosis, mesangial expansion and proliferation and tubulo-interstitial changes. A minimum of 30 glomeruli in each specimen was examined and the severity of the lesions was graded from 0 to 4+, according to the percentage of glomerular involvement. […] An injury score was obtained by multiplying the degree of damage (0-4+) by the percentage of glomeruli with the same degree of lesions. The evaluation of tubulointerstitial fibrosis was performed with the point-counting method using a Zeiss I integrating eyepiece.

O=C(CC1NCCC[C@H]1O)Cn1cnc2cc(Br)c(Cl)cc2c1=O (stereo in doubt) [Halofuginone, 7-bromo-6-chloro-3-[3-(3-hydroxy-2-piperidinyl)-2-oxopropyl]-4(3H)-quinazolinone]
levels of proteinuria versus control nephrectomized group [1]: lower levels of proteinuria
tubulointerstitial fibrosis compared to the control group ([2]; halofuginone 0.2 mg/kg/day oral, RMR rats, 10 weeks): significant decrease
presence of glomerulosclerosis and mesangial proliferation ([2]; halofuginone 0.2 mg/kg/day oral, RMR rats, 10 weeks, versus control): less accentuated
Tubules ([2]; individual rats of Group I, halofuginone 0.2 mg/kg/day oral gavage, 10 weeks after RMR, light microscopy): Normal; also recorded: Few atrophic
Glomerulus Proliferation ([2]; individual rats of Group I, halofuginone 0.2 mg/kg/day oral gavage, 10 weeks after RMR, light microscopy (preliminary results)): Mild (4×) and Moderate (2×)
Glomerulus Sclerosis ([2]; individual rats of Group I, halofuginone 0.2 mg/kg/day oral gavage, 10 weeks after RMR, light microscopy, graded 0 to 4+): 0
